Key:
ETB = target: T1, ETB (Rattus norvegicus, UniProt P21451); assay: Endothelin binding inhibition experiment, 125I-endothelin-1 binding, ETB, membranes from rat brain; conditions: 125I-endothelin-1 2×10^-11 M, 2 hours at 25° C., pH 7.4
T1 construct: Rat brain tissue was minced, and a crude receptor membrane sample was prepared; from tissue; host or cells: rat brain; crude membranes
T1 sequence (P21451 27-442): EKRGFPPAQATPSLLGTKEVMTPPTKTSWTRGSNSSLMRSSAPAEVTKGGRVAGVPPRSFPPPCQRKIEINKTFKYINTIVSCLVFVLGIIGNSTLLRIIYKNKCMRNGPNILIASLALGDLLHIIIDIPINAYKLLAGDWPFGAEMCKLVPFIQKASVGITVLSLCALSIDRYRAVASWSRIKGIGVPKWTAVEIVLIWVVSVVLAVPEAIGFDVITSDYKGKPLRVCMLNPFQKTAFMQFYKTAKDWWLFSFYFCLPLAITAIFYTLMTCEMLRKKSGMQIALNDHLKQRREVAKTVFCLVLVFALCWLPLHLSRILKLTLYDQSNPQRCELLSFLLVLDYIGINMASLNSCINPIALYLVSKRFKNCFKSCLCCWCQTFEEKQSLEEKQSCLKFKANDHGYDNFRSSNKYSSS
Protocol: (§1) Endothelin binding inhibition experiment
(§2) The thus-obtained membrane sample (1 μl) was incubated together with ^125 I-endothelin-1 (2×10^-11 M) and various concentrations of the compounds, for 2 hours at 25° C., in 250 μl in total volume of 50 mM Tris-HCl buffer (pH 7.4) containing 0.5% bovine serum albumin. The incubated mixture was filtered by use of HVPP filters (pore size 0.45 μm, product of Milipore). The filters were washed with cold buffer A four times, and then measured with a gamma-ray counter (Aroka Autowell Gamma System ARC-251). Preparation of crude receptor membrane samples (ETB) from rat brain and assay of ^125 I endothelin-1:
Rat brain tissue was minced, and a crude receptor membrane sample was prepared in a manner similar to that used in the aforementioned case of porcine thoracic aorta. Also, ^125 I-endothelin-1 assay was performed in the same manner as described above.

ETA = target: T2, ETA (Sus scrofa, UniProt Q29010); assay: Endothelin binding inhibition experiment, 125I-endothelin-1 binding, ETA, membranes from smooth muscles of porcine thoracic aorta; conditions: 125I-endothelin-1 2×10^-11 M, 2 hours at 25° C., pH 7.4
T2 construct: crude receptor membrane samples (ETA) from smooth muscles of porcine thoracic aorta; from tissue; host or cells: porcine thoracic aorta smooth muscle, endothelium removed; crude membranes
T2 sequence (Q29010 21-427): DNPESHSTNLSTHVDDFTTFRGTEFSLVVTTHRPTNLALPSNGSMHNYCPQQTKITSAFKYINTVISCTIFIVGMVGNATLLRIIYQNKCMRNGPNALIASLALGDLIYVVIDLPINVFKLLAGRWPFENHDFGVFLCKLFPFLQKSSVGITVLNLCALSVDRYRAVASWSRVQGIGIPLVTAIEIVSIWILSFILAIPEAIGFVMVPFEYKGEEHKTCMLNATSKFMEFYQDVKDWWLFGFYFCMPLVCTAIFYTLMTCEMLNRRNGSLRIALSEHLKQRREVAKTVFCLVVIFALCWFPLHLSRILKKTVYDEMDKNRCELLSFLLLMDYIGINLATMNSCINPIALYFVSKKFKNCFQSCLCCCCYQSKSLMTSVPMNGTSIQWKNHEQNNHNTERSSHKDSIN
Protocol: as §1
Preparation of crude receptor membrane samples (ETA) from smooth muscles of porcine thoracic aorta:
Porcine thoracic aorta which was separated from the fatty tissue and then was removed endothelium with gauze was minced, and then homogenized in three times the volume of Tris-HCl buffer (pH 7.4) (buffer A) containing 0.25M sucrose, 3 mM ethylenediaminetetraacetic acid, 5 μg/ml of aprotinin, 10 μg/ml of pepstatin A, 10 μg/ml of leupeptin, and 0.1 μM p-amidinophenylmethanesulfonyl fluoride. After centrifugation for 30 minutes at 1,000×g, the supernatant was further centrifuged for 30 minutes at 100,000×g. The pellets were suspended in buffer A, and recentrifuged for 30 minutes at 100,000×g. The pellets were suspended in buffer A and the suspension was stored at -80° C. ^125 I-Endothelin-1 binding assay:
as §2, with “endothelin-1: […]” for “endothelin-1:”

IC50 (ETB) [nM] | IC50 (ETA) [nM] | Compound
0.86 | 63 | COc1ccccc1Oc1c(NS(=O)(=O)c2ccc(C(C)(C)C)cc2)nc(N2CCOCC2)nc1OCCC(=O)Nc1ccccc1C(C)C [Example 2, N-(2-isopropylphenyl)-3-[6-(4-t-butylphenylsulfonylamino)-5-(2-methoxyphenoxy)-2-morpholino-4-pyrimidinyloxy]propionamide]
29 | 32 | COc1ccccc1Oc1c(NS(=O)(=O)c2ccc(C(C)(C)C)cc2)nc(N2CCOCC2)nc1OCCC(=O)Nc1ccccn1 [Example 3, N-(2-pyridyl)-3-[6-(4-t-butylphenylsulfonylamino)-5-(2-methoxyphenoxy)-2-morpholino-4-pyrimidinyloxy]propionamide]
5.4 | 68 | COc1ccccc1Oc1c(NS(=O)(=O)c2ccc(C(C)(C)C)cc2)nc(N2CCN(C=O)CC2)nc1OCCC(=O)Nc1ccccc1C(C)C [Example 13, N-(2-isopropylphenyl)-3-[6-(4-t-butylphenylsulfonylamino)-2-(4-formylpiperazinyl)-5-(2-methoxyphenoxy)-4-pyrimidinyloxy]-propionamide]
5.1 | 240 | COc1ccccc1Oc1c(NS(=O)(=O)c2ccc(C(C)(C)C)cc2)nc(N2CCOCC2)nc1OCCC(=O)OCc1ccccc1 [Example 23, benzyl 3-[6-(4-t-butylphenylsulfonylamino)-5-(2-methoxyphenoxy)-2-morpholino-4-pyrimidinyloxy]propionate]

Reference: patent publication US5883092A, “Pyrimidine derivatives as endothelin antagonists” (Kowa Co., Ltd., priority 1995, dated 1999)
